The text below walks through data of patent US20220251079A1, “BENZO[B][1,8]NAPHTHYRIDINE ACETIC ACID DERIVATIVES AND METHODS OF USE” (STINGTHERA, INC., priority 2019, published 2022).

One experiment has as its target T1, hSTING-R232 (Homo sapiens, UniProt Q86WV6, H232R).
T1 construct: recombinant mouse or human STING protein (aa140-379); 6xHis-SUMO elsewhere) (cleaved yes); made in house
Description: STING Differential Scanning Fluorimetry (DSF) assay, human. The conditions noted are these: human STING R232-WT, 5 μM protein. The format is binding. As to the method:
A STING DSF assay was performed to determine protein thermostability shift in response to small molecule ligand binding. A STING thermostability shift assay based on differential scanning fluorimetry was used to measure (1) the net shift in melting temperature (ΔTm)between the apo and ligand-bound states of the STING protein and (2) the concentration of the thermal denaturation transition (FC50) as a surrogate measure of binding affinity (Kd). Briefly, recombinant mouse or human STING protein (aa140-379) comprising the C-terminal binding domain (R232-WT) were purified by affinity chromatography and further processed to remove the purification tag, followed by gel filtration to achieve purity >95%. Protein in assay buffer was transferred to a 384 well plate and incubated with the hydrophobic fluorescent dye SYBR Orange. A temperature ramp was applied to the plate and the resulting dye fluorescence was plotted as a function of temperature. The first derivative of this function (dF/dT) was then used to extrapolate the melting temperature of the protein at various concentrations of compound and determine the thermal denaturation profile of a protein/compound complex.
2. 5 μM purified Target STING Protein
4. Buffer: 100 mM NaCl, 30 mM HEPES, pH 7.5
5. Thermal Ramp: 0.5° C./min
7. 11 point, 2 fold dilution, duplicate, 300 μM high concentrations
(In general: Differential scanning fluorimetry follows unfolding on heating by fluorescence.)

Experiment [1] concerns the target T2, human STING protein (140-379) (Homo sapiens, UniProt Q86WV6, H232R).
T2 construct: 6XHIS-SUMO-hSTING (140-379); made in house; host or cells: BL-21(DE3) E. coli, pET vector
Nature of the experiment: Radiometric filtration binding competition assay (WT_FBA_HIS-SUMO-hSWAT). As to conditions: read-out: WT-hSWAT IC50. As to the method:
A radiometric filtration binding competition assay was performed to quantify the binding affinity of compounds of the present application for the human or mouse STING protein, or associated HAQ human isoform. The competition format filtration binding assay detects the ability of small molecule compounds from binding to and inhibiting the subsequent binding of a tritiated [H3] […] The resulting dose response was fit by non-linear regression to determine an IC50 value, from which a Ki value for each compound was extrapolated.
Briefly, the recombinant C-terminal ligand binding domain of the human STING protein (140-379) or mouse STING protein (139-328) [0.5 μM] was incubated in the presence of a compound of the present application (8 point, 2 fold dilution starting at 300 μM) for 30 min or under control conditions. […] The resulting complexes were then filtered, dried, and scintillation fluid was added and the remaining radio signal was measured to determine the degree of compound ligand inhibition. This assay format was optimized for both the WT and HAQ isoforms of the human protein and the mouse orthologue protein.
Parameters optimized: • a. Form of protein: 6×HIS-SUMO tag or untagged • b. Concentration of target protein: Minimum concentration that achieved >80 max signal • c. Assay DMSO concentration: 10%-0.1% • d. Assay Buffer: Base (Tris or phosphate), Salt concentration, +/−Tween (0.1-2%) • e. […] Probe Concentration: Minimum concentration that achieved max assay window • g. Assay Format: Scintillation Proximity Bead or Filtration Binding Plate • h. Assay Plate: 384 vs 96 well format • i. Assay incubation times for successive incubation steps
WT-hSWAT: WT_FBA_HIS-SUMO-hSWAT IC50 (μM) (“WT”=Wild-type); and WT-mSWAT: MOUSE_FBA_HIS-SUMO-mSWAT C50 (μM) which is the mouse isoform of STING protein.

A further experiment concerns the target T3, STING protein (Homo sapiens, UniProt Q86WV6, H232R).
T3 construct: host or cells: THP-1 dual reporter cells, TMEM173 modified from HAQ to R232 (THP1-dual-KI R232)
Description: Cell based reporter assay of IRF activation (THP1-dual-KI R232, IRF luciferase). As to conditions: THP-1; read-out: THP1-dual-KI R232_IRF(Luciferase)_Activity Maximum measured (%). From the text:
Cell reporter assays were developed to measure the ability of compounds of the application to activate the STING protein and activate both IRF/IFN and the NFkB signaling pathways in the myeloid derived cell line THP-1, which is commercially available from several suppliers. Briefly, THP-1 monocytes were transfected and selected for stable integration of 2 reporter constructs. Clones incorporating stably integrated vectors were further selected by antibiotic resistance to blastocidin and zeocin. The reporter constructs included: (1) firefly luciferase reporter gene under the control of an ISG54 promoter fused to five interferon (IFN)-stimulated response elements to measure IRF transcription factor binding activity and (2) secreted embryonic alkaline phosphatase reporter gene under transcription control of an IFN-beta minimal promoter fused to 5 copies of the NFkB consensus transcriptional response element and 3 copies of the c-Rel binding site.
The resulting THP-1 cell line was further modified to incorporate 3 amino acid point mutations (H71R A230G Q293R). This modification of the native TMEM173 gene in THP-1 cells (HAQ) was designed to produce a cell reporter that expressed the most common allelic variant in the human population (THP-1 R232, available from InvivoGen). Alternatively, the TMEM173 gene was knocked out to provide a congenic control to counter-screen for compound activation that was independent of the STING protein (THP-1 STING KO).
Once cell lines were established, reporter assay protocols were developed and optimized to screen small molecule compounds for agonist activity. Assay optimization for efficacy and Z′ value included titration of the following parameters:
1. No pre-activation with PMA
2. […]cells/well in 96 well plate format
7. Cell Titer Glo reagent (Promega) following supermatant removal
9. 8 point, 2 fold, duplicate starting at 150 μM PP28T

T3 sequence (Q86WV6 whole entry H232R): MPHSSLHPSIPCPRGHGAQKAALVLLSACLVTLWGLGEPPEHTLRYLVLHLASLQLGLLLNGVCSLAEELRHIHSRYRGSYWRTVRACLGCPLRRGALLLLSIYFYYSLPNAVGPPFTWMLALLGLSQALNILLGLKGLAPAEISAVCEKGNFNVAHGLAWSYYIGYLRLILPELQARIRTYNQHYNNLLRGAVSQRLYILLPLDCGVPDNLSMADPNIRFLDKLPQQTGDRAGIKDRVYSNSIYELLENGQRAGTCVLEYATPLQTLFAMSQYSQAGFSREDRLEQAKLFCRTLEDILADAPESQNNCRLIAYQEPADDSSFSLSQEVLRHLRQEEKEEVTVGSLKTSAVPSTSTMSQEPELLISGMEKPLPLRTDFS
T2 sequence (Q86WV6 140-379 H232R): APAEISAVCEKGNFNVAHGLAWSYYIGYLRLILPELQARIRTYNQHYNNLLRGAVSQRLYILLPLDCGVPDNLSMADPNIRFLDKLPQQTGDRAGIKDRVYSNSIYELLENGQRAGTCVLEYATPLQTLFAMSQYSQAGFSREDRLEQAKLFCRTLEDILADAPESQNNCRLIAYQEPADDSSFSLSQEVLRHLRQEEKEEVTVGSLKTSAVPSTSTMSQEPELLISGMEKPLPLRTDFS
T1 sequence (Q86WV6 140-379 H232R): as above

In the case of `CO[C@H]1C[C@@H](N(C)c2ccc3c(=O)c4ccc(Cl)c(SC)c4n(CC(=O)O)c3n2)C1` (single isomer, unassigned) [Compound 44, 2-(8-chloro-2-(((1s,3s)-3-methoxycyclobutyl) (methyl)amino)-9-(methylthio)-5-oxobenzo[b][1,8]naphthyridin-10(5H)-yl)acetic acid], the “WT_DSF_hSWAT Tm Shift (° C.)” value on hSTING-R232 was “D (“D” > 7° C.)”. Besides, the IC50 (as a rule, the midpoint of a concentration-inhibition curve) in experiment [1] lay in the range of 20 to 100 µM. The Emax at STING protein is greater than 50%.
The like results for `CO[C@H]1C[C@H](N(C)c2ccc3c(=O)c4ccc(Cl)c(SC)c4n(CC(=O)O)c3n2)C1` (single isomer, unassigned) [Compound 70, 2-(8-chloro-2-(((1r,3r)-3-methoxycyclobutyl)(methyl)amino)-9-(methylthio)-5-oxobenzo[b][1,8]naphthyridin-10(5H)-yl)acetic acid] were, in that order, “D (“D” > 7° C.)”, less than 20 µM and greater than 50%.
The like results for `COc1c(Cl)ccc2c(=O)c3ccc(C(C)C)nc3n(CC(=O)O)c12` [Compound 1] were, in that order, “D (“D” > 7° C.)”, 100 to 300 µM and greater than 50%.
Turning to `Cc1ccc2c(=O)c3ccc(Cl)c(N(C)C)c3n(CC(=O)O)c2n1` [Compound 4], at hSTING-R232, the “WT_DSF_hSWAT Tm Shift (° C.)” value was “D (“D” > 7° C.)”. The IC50 in experiment [1] was in the range of 20 to 100 µM. In addition, the Emax on STING protein is greater than 50%.
For the molecule `CN(C)c1c(Cl)ccc2c(=O)c3ccc(C(C)(C)C)nc3n(CC(=O)O)c12` [Compound 5, [2-tert-butyl-8-chloro-9-(dimethylamino)-5-oxobenzo[b]1,8-naphthyridin-10-yl]acetic acid], on hSTING-R232, the “WT_DSF_hSWAT Tm Shift (° C.)” value is listed as “D (“D” > 7° C.)”. Besides, the IC50 in experiment [1] is less than 20 µM. Also, the Emax on STING protein is greater than 50%.
With `CN(C)c1c(Cl)ccc2c(=O)c3ccc(Nc4ccccc4)nc3n(CC(=O)O)c12` [Compound 6], the “WT_DSF_hSWAT Tm Shift (° C.)” value on hSTING-R232 was “D (“D” > 7° C.)”. Moreover, the IC50 in experiment [1] is less than 20 µM. Also, the Emax at STING protein was greater than 50%.
Take `CC(C)c1ccc2c(=O)c3ccc(Cl)c(N(C)C)c3n(CC(=O)O)c2n1` [Compound 7]: the “WT_DSF_hSWAT Tm Shift (° C.)” value on hSTING-R232 was “D (“D” > 7° C.)”. In addition, the IC50 in experiment [1] was less than 20 µM. Moreover, the Emax at STING protein was greater than 50%.
With `CCc1ccc2c(=O)c3ccc(Cl)c(N(C)C)c3n(CC(=O)O)c2n1` [Compound 8], on hSTING-R232, the “WT_DSF_hSWAT Tm Shift (° C.)” value was “D (“D” > 7° C.)”. In experiment [1], the IC50 is less than 20 µM. Moreover, the Emax on STING protein is greater than 50%.
On to `Cc1ccc2c(=O)c3c(O)cc(Cl)c(N(C)C)c3n(CC(=O)O)c2n1` [Compound 9], for which the “WT_DSF_hSWAT Tm Shift (° C.)” value at hSTING-R232 is given as “C (“C” = 2-7° C.)”. Moreover, the half-inhibitory concentration (IC50) in experiment [1] fell in the range of 100 to 300 µM. In addition, the Emax on STING protein was greater than 50%.
On the same counts, the results for `Cc1ccc2c(=O)c3ccc(Cl)c(N(C)C)c3n(CC(=O)NS(C)(=O)=O)c2n1` [Compound 10] are “C (“C” = 2-7° C.)”, greater than 300 µM and greater than 50%.
As to `Cc1ccc2c(=O)c3ccc(Cl)c(N(C)C)c3n(CC(=O)NC#N)c2n1` [Compound 11], on hSTING-R232, the “WT_DSF_hSWAT Tm Shift (° C.)” value is “B (“B” = 0-2° C.)”. Further, in experiment [1], the IC50 was greater than 300 µM. In addition, the Emax at STING protein was less than 5%.
`CSc1c(Cl)ccc2c(=O)c3ccc(C(C)(C)C)nc3n(CC(=O)O)c12` [Compound 12]: the “WT_DSF_hSWAT Tm Shift (° C.)” value on hSTING-R232 was “D (“D” > 7° C.)”. Besides, in experiment [1], the half-maximal inhibitory concentration (IC50) was less than 20 µM. The Emax at STING protein is greater than 50%.
The like results for `CSc1ccc2c(=O)c3ccc(C(C)(C)C)nc3n(CC(=O)O)c2c1SC` [Compound 13] were, in that order, “B (“B” = 0-2° C.)”, greater than 300 µM and greater than 50%.
The like results for `CC(C)(C)c1ccc2c(=O)c3ccc(Cl)c(F)c3n(CC(=O)O)c2n1` [Compound 14] were, in that order, “B (“B” = 0-2° C.)”, greater than 300 µM and greater than 50%.
The like results for `CCc1nc2c(cc1Cl)c(=O)c1ccc(Cl)c(N(C)C)c1n2CC(=O)O` [Compound 17, 2-(3,8-dichloro-9-(dimethylamino)-2-ethyl-5-oxobenzo[b][1,8]naphthyridin-10(5H)-yl)acetic acid] were, in that order, “C (“C” = 2-7° C.)”, 20 to 100 µM and greater than 50%.
Take `CCOc1nc2c(cc1Cl)c(=O)c1ccc(Cl)c(N(C)C)c1n2CC(=O)O` [Compound 18, 2-(3,8-dichloro-9-(dimethylamino)-2-ethoxy-5-oxobenzo[b][1,8]naphthyridin-10(5H)-yl) acetic acid]: the “WT_DSF_hSWAT Tm Shift (° C.)” value on hSTING-R232 is listed as “C (“C” = 2-7° C.)”. In addition, the IC50 in experiment [1] was less than 20 µM. For the same molecule, the Emax on STING protein is greater than 50%.
On the same counts, the results for `CN(C)c1ccc2c(=O)c3ccc(Cl)c(N(C)C)c3n(CC(=O)O)c2n1` [Compound 19, sodium 2-(8-chloro-2,9-bis(dimethylamino)-5-oxobenzo[b][1,8]naphthyridin-10(5H)-yl)acetate] are “D (“D” > 7° C.)”, 20 to 100 µM and greater than 50%.
Take `CN(C)c1c(Cl)ccc2c(=O)c3ccc(C(C)(C)C(N)=O)nc3n(CC(=O)O)c12` [Compound 20, 2-(2-(1-amino-2-methyl-1-oxopropan-2-yl)-8-chloro-9-(dimethylamino)-5-oxobenzo[b][1,8]naphthyridin-10(5H)-yl)acetic acid]: the “WT_DSF_hSWAT Tm Shift (° C.)” value at hSTING-R232 is “C (“C” = 2-7° C.)”. In experiment [1], the 50% inhibitory concentration (IC50) was in the range of 100 to 300 µM. Further, the Emax at STING protein is greater than 50%.
For `CO[C@H]1C[C@H](N(C)c2ccc3c(=O)c4ccc(C)c(N(C)C)c4n(CC(=O)O)c3n2)C1` [Compound 66, 2-(9-(dimethylamino)-2-(((1r,3r)-3-methoxycyclobutyl)(methyl)amino)-8-methyl-5-oxobenzo[b][1,8]naphthyridin-10(5H)-yl)acetic acid], at hSTING-R232, the “WT_DSF_hSWAT Tm Shift (° C.)” value is on record as “C (“C” = 2-7° C.)”. Also, the half-maximal inhibitory concentration (IC50) in experiment [1] lay within 100 to 300 µM.
With `CSc1c(Cl)ccc2c(=O)c3cc(Cl)c(N(C)CC4CCOCC4)nc3n(CC(=O)O)c12` [Compound 76, sodium 2-(3,8-dichloro-2-(methyl((tetrahydro-2H-pyran-4-yl)methyl)amino)-9-(methylthio)-5-oxobenzo[b][1,8]naphthyridin-10(5H)-yl)acetate], the “WT_DSF_hSWAT Tm Shift (° C.)” value at hSTING-R232 was “D (“D” > 7° C.)”. Moreover, the IC50 in experiment [1] was less than 20 µM.
